Laboratory results reported in ChEMBL document CHEMBL4321865, “Discovery of Novel Inhibitors of LpxC Displaying Potent in Vitro Activity against Gram-Negative Bacteria” (J Med Chem, 2020).
Values after ≈ are worked out from the molar mass of the structure shown.

How the values were obtained:
[1] = AUC (0 to 24 hrs) in NMRI/ICR CD-1 mouse at 150 mg/kg, sc by LC-MS/MS analysis; format: ADME, organism-based; parameters: dose 150 mg/kg, time < 24 hr, route subcutaneous; details: in vivo
[2] = mouse, plasma, 1 µM
Description: Protein binding in mouse plasma assessed as fraction unbound at 1 uM by equilibrium dialysis method

Escherichia coli [3] = assay: Antibacterial activity against Escherichia coli infected in cyclophosphamide-induced NMRI/ICR CD-1 mouse model of neutropenic thigh infection assessed as reduction in thigh bacterial load at 50 mg/kg, sc measured after 22 hrs relative to control; format: functional
physchem [4] = details: DMSO, pH 7
Description: Solubility of the compound in DMSO at pH 7 incubated for 24 hrs by LC-UV method

[5] = Apparent clearance in NMRI/ICR CD-1 mouse at 150 mg/kg, sc by LC-MS/MS analysis; format: ADME, organism-based; details: in vivo
Pseudomonas aeruginosa [6] = assay: microbe, parasite or virus in culture; details: ATCC 27853
Description: Antimicrobial activity against Pseudomonas aeruginosa ATCC 27853 by broth microdilution method

[7] = Cmax in NMRI/ICR CD-1 mouse at 50 mg/kg, sc by LC-MS/MS analysis; format: ADME, organism-based; parameters: dose 50 mg/kg, route subcutaneous; details: in vivo
[8] = tested on: T1, UDP-3-O-acyl-N-acetylglucosamine deacetylase (Escherichia coli K-12), P0A725 [C125S]
T1 sequence (whole entry): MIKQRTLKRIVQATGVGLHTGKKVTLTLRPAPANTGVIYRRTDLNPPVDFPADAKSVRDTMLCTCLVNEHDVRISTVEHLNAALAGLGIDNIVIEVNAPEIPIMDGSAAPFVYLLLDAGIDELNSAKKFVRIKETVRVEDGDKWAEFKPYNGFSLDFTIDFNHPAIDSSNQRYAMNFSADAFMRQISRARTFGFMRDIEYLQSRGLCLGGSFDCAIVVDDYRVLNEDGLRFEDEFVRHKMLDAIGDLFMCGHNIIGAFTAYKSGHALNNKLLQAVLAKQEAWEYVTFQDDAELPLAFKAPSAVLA

Pseudomonas aeruginosa [9] = assay: microbe, parasite or virus in culture; details: PAO1
Description: Antimicrobial activity against wild-type Pseudomonas aeruginosa PAO1 by broth microdilution method

[10] = Tmax in NMRI/ICR CD-1 mouse at 150 mg/kg, sc by LC-MS/MS analysis; format: ADME, organism-based; details: in vivo
physchem [11] = details: DMSO, pH 9
Description: Solubility of the compound in DMSO at pH 9 incubated for 24 hrs by LC-UV method

Escherichia coli [12] = assay: microbe, parasite or virus in culture; details: ATCC 25922
Description: Antibacterial activity against wild-type Escherichia coli ATCC 25922 by broth microdilution method

Escherichia coli [13] = assay: Antibacterial activity against Escherichia coli infected in cyclophosphamide-induced NMRI/ICR CD-1 mouse model of neutropenic thigh infection assessed as reduction in thigh bacterial load at 150 mg/kg, sc measured after 22 hrs relative to control; format: functional
physchem [14] = details: DMSO, pH 4
Description: Solubility of the compound in DMSO at pH 4 incubated for 24 hrs by LC-UV method

Klebsiella pneumoniae = assay: microbe, parasite or virus in culture; details: T 6474
Description: Antibacterial activity against multi-drug resistant Klebsiella pneumoniae T 6474 by broth microdilution method

[15] = tested on: T2, UDP-3-O-acyl-N-acetylglucosamine deacetylase (Pseudomonas aeruginosa (strain ATCC 15692 / PAO1 / 1C / PRS 101 / LMG12228)), P47205 [C40S]
T2 sequence (whole entry): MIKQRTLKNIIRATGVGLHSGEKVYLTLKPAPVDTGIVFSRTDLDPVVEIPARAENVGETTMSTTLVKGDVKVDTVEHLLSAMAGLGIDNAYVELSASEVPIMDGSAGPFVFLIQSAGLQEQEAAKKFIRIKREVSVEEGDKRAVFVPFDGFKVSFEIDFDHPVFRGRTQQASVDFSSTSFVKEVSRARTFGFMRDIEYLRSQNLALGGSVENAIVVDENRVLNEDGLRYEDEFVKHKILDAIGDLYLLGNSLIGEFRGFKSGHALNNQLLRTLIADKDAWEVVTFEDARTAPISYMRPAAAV

Mus musculus [16] = assay: Apparent unbound clearance in NMRI/ICR CD-1 mouse at 150 mg/kg, sc by LC-MS/MS analysis; format: ADME, organism-based; details: in vivo
[17] = Free AUC (0 to 24 hrs) in NMRI/ICR CD-1 mouse at 150 mg/kg, sc by LC-MS/MS analysis; format: ADME, organism-based; details: in vivo
physchem [18] = details: n-octanol/phosphate buffered saline, pH 7.4
Description: n-Octanol/phosphate buffered saline partition coefficient, log D of the compound at pH 7.4 by LC-UV method

Pseudomonas aeruginosa [19] = assay: Antimicrobial activity against Pseudomonas aeruginosa PA2616 harboring delta mexAB-OprM mutant by broth microdilution method; format: functional
[20] = Apparent clearance in NMRI/ICR CD-1 mouse at 50 mg/kg, sc by LC-MS/MS analysis; format: ADME, organism-based; details: in vivo
in vivo = details: NMRI/ICR CD-1, mouse, sc, 50 mg/kg
[21] = Tmax in NMRI/ICR CD-1 mouse at 50 mg/kg, sc by LC-MS/MS analysis; format: ADME, organism-based; details: in vivo
[22] = mouse, in vivo, sc, 50 mg/kg
Mus musculus [23] = assay: Apparent unbound clearance in NMRI/ICR CD-1 mouse at 50 mg/kg, sc by LC-MS/MS analysis; format: ADME, organism-based; details: in vivo
[24] = Free AUC (0 to 24 hrs) in NMRI/ICR CD-1 mouse at 75 mg/kg, sc by LC-MS/MS analysis; format: ADME, organism-based; details: in vivo
[25] = Apparent clearance in NMRI/ICR CD-1 mouse at 75 mg/kg, sc by LC-MS/MS analysis; format: ADME, organism-based; details: in vivo
Mus musculus [26] = assay: Apparent unbound clearance in NMRI/ICR CD-1 mouse at 75 mg/kg, sc by LC-MS/MS analysis; format: ADME, organism-based; details: in vivo

SMILES: C[C@@](CCN1Cc2cc(C#CC#CC3(N)CC3)cn2C1=O)(C(=O)NO)S(C)(=O)=O.Cl
- AUC(0-t) at 24 h [1]: 14900 ng·h/mL
- Fu [2]: 0.078%
- fold change (FC) (Escherichia coli [3]): 2.8
- solubility at 24 h (physchem [4]): 418 µg/mL
- CL/F [5]: 55.9 mL/min/kg
- MIC (Pseudomonas aeruginosa [6]): 0.5 µg/mL
- Cmax [7]: 8600 ng/mL
- ΔTm [8]: 10 °C
- MIC (Pseudomonas aeruginosa [9]): 0.5 µg/mL
- Tmax [10]: 30 min
- solubility at 24 h (physchem [11]): 536 µg/mL
- MIC (Escherichia coli [12]): 0.25 µg/mL
- fold change (FC) (Escherichia coli [13]): 1.8
- solubility at 24 h (physchem [14]): 571 µg/mL
- MIC (Klebsiella pneumoniae): 0.25 µg/mL
- ΔTm [15]: 11.6 °C
- CLu/F (Mus musculus [16]): 716 mL/min/kg
- fAUC [17]: 1160 ng·h/mL

SMILES: COc1ccc(-c2cc3n(c2)C(=O)N(CC[C@](C)(C(=O)NO)S(C)(=O)=O)C3)c(F)c1
- solubility at 24 h (physchem [4]): 37 µg/mL (≈ 84.2 µM)
- MIC (Pseudomonas aeruginosa [6]): 1 µg/mL (≈ 2.28 µM)
- logD (physchem [18]): 1.8
- MIC (Pseudomonas aeruginosa [19]): 0.12 µg/mL (≈ 0.273 µM)
- ΔTm [8]: 8.1 °C
- MIC (Pseudomonas aeruginosa [9]): 0.5 µg/mL (≈ 1.14 µM)
- solubility at 24 h (physchem [11]): 302 µg/mL (≈ 687 µM)
- MIC (Escherichia coli [12]): 0.12 µg/mL (≈ 0.273 µM)
- MIC (Klebsiella pneumoniae): 0.25 µg/mL (≈ 0.569 µM)
- ΔTm [15]: 11.5 °C

SMILES: C[C@@](CCN1Cc2cc(C#CC#C[C@H]3C[C@@H]3CO)cn2C1=O)(C(=O)NO)S(C)(=O)=O
- CL/F [20]: 20.2 mL/min/kg
- Fu [2]: 0.009%
- fold change (FC) (Escherichia coli [3]): 1.8
- AUC(0-t) at 24 h (in vivo): 41000 ng·h/mL
- MIC (Pseudomonas aeruginosa [6]): 0.25 µg/mL (≈ 0.577 µM)
- Cmax [7]: 22600 ng/mL
- ΔTm [8]: 11.2 °C
- MIC (Pseudomonas aeruginosa [9]): 0.5 µg/mL (≈ 1.15 µM)
- MIC (Escherichia coli [12]): 0.12 µg/mL (≈ 0.277 µM)
- fold change (FC) (Escherichia coli [13]): 0.8
- solubility at 24 h (physchem [14]): 600 µg/mL (≈ 1380 µM)
- MIC (Klebsiella pneumoniae): 0.25 µg/mL (≈ 0.577 µM)
- ΔTm [15]: 13.2 °C
- Tmax [21]: 30 min
- fAUC [22]: 370 ng·h/mL
- CLu/F (Mus musculus [23]): 2300 mL/min/kg

SMILES: COc1ccc(-c2cn3c(n2)CN(CC[C@](C)(C(=O)NO)S(C)(=O)=O)C3=O)c(F)c1
- MIC (Pseudomonas aeruginosa [6]): > 32 µg/mL
- MIC (Pseudomonas aeruginosa [19]): 8 µg/mL (≈ 18.2 µM)
- ΔTm [8]: 6 °C
- MIC (Pseudomonas aeruginosa [9]): > 32 µg/mL
- MIC (Escherichia coli [12]): 4 µg/mL (≈ 9.08 µM)
- MIC (Klebsiella pneumoniae): 16 µg/mL (≈ 36.3 µM)
- ΔTm [15]: 6.9 °C

SMILES: COc1ccc(-c2ccn(CC[C@](C)(C(=O)NO)S(C)(=O)=O)c(=O)c2)c(F)c1
- Fu [2]: 0.31%
- solubility at 24 h (physchem [4]): 130 µg/mL (≈ 315 µM)
- AUC(0-t) at 24 h (in vivo): 11700 ng·h/mL
- MIC (Pseudomonas aeruginosa [6]): 0.5 µg/mL (≈ 1.21 µM)
- logD (physchem [18]): 1.1
- MIC (Pseudomonas aeruginosa [19]): ≤ 0.06 µg/mL
- Cmax [7]: 10300 ng/mL
- MIC (Pseudomonas aeruginosa [9]): 0.25 to 0.5 µg/mL (≈ 0.606 to 1.21 µM)
- fAUC [24]: 3620 ng·h/mL
- solubility at 24 h (physchem [11]): 692 µg/mL (≈ 1680 µM)
- MIC (Escherichia coli [12]): ≤ 0.06 µg/mL
- MIC (Klebsiella pneumoniae): 0.25 µg/mL (≈ 0.606 µM)
- CL/F [25]: 72 mL/min/kg
- CLu/F (Mus musculus [26]): 231 mL/min/kg

SMILES: CC(C)(O)c1ccc(C#Cc2ccc3c(c2)CN(CC[C@](C)(C(=O)NO)S(C)(=O)=O)C3=O)cc1
- solubility at 24 h (physchem [4]): 7 µg/mL (≈ 14.4 µM)
- MIC (Pseudomonas aeruginosa [6]): 4 µg/mL (≈ 8.25 µM)
- logD (physchem [18]): 2.3
- ΔTm [8]: 9.5 °C
- MIC (Pseudomonas aeruginosa [9]): 8 µg/mL (≈ 16.5 µM)
- solubility at 24 h (physchem [11]): 136 µg/mL (≈ 281 µM)
- MIC (Escherichia coli [12]): 0.25 µg/mL (≈ 0.516 µM)
- solubility at 24 h (physchem [14]): 4 µg/mL (≈ 8.25 µM)
- MIC (Klebsiella pneumoniae): 0.5 µg/mL (≈ 1.03 µM)
- ΔTm [15]: 12.8 °C

SMILES: C[C@@](CCN1Cc2cc(C#CC#CC3(O)COC3)cn2C1=O)(C(=O)NO)S(C)(=O)=O
- solubility at 24 h (physchem [4]): > 740 µg/mL
- MIC (Pseudomonas aeruginosa [6]): 2 µg/mL (≈ 4.59 µM)
- logD (physchem [18]): 0.3
- ΔTm [8]: 8.8 °C
- MIC (Pseudomonas aeruginosa [9]): 4 µg/mL (≈ 9.19 µM)
- solubility at 24 h (physchem [11]): > 740 µg/mL
- MIC (Escherichia coli [12]): 1 µg/mL (≈ 2.3 µM)
- solubility at 24 h (physchem [14]): > 740 µg/mL
- MIC (Klebsiella pneumoniae): 2 µg/mL (≈ 4.59 µM)
- ΔTm [15]: 11.3 °C

SMILES: C[C@@](CCN1Cc2cc(C#CC#C[C@H]3C[C@@H]3CO)sc2C1=O)(C(=O)NO)S(C)(=O)=O
- solubility at 24 h (physchem [4]): 603 µg/mL (≈ 1340 µM)
- MIC (Pseudomonas aeruginosa [6]): 0.5 µg/mL (≈ 1.11 µM)
- logD (physchem [18]): 1.3
- ΔTm [8]: 12.2 °C
- MIC (Pseudomonas aeruginosa [9]): 0.5 µg/mL (≈ 1.11 µM)
- solubility at 24 h (physchem [11]): > 760 µg/mL
- MIC (Escherichia coli [12]): 0.15 µg/mL (≈ 0.333 µM)
- solubility at 24 h (physchem [14]): 522 µg/mL (≈ 1160 µM)
- MIC (Klebsiella pneumoniae): 0.25 µg/mL (≈ 0.555 µM)
- ΔTm [15]: 15 °C
